Measured values from US7834023B2 (Portola Pharmaceuticals, Inc., priority 2006, dated 2010).

What was measured:
P2Y12 receptor = target: T1, P2Y12 receptor (Homo sapiens, UniProt Q9H244); experiment: platelet ADP receptor binding assay (ARB): inhibition of [3H]2-MeS-ADP binding to platelets; conditions: [3H]2-MeS-ADP binding to apyrase-washed human platelets
T1 construct: endogenous in cells; host or cells: human platelets (outdated from blood banks or fresh), apyrase-washed, whole
Summary of the method: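 Apyrase-washed human platelets (1×10^8 per well) were preincubated 5 min with serial compound dilutions in Hepes-Tyrode's/0.1% BSA/0.6% DMSO, then incubated 15 min at room temperature with 1 nM [3H]2-MeS-ADP. Filter-bound radioactivity gave specific binding (nonspecific: 10 μM 2-MeS-ADP), and IC50s came from non-linear regression.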

[1] = system: human platelet-rich plasma (PRP); experiment: PRP assay: inhibition of ADP-mediated platelet aggregation in vitro; type: cell-based; conditions: Homo sapiens, Platelet, ADP-induced aggregation
Method: The effect of testing the compound according to the invention on ADP-induced human platelet aggregation was assessed in a 96-well microtiter assay (see generally the procedures in Jantzen, H. M. et al. (1999) Thromb. Hemost. 81:111-117) or standard cuvette light transmittance aggregometry using either human platelet-rich plasma (PRP) or human washed platelets.
For preparation of human platelet-rich plasma for aggregation assays, human venous blood was collected from healthy, drug-free volunteers into 0.38% sodium citrate (0.013 M, pH 7.0 final). Platelet-rich plasma (PRP) is prepared by centrifugation of whole blood at 160×g for 20 minutes at room temperature. The PRP layer is removed, transferred to a new tube, and the platelet count is adjusted, if necessary, to achieve a platelet concentration of ˜3×10^8 platelets/ml using platelet-poor plasma (PPP). PPP is prepared by centrifugation of the remaining blood sample (after removal of PRP) for 20 minutes at 800×g. This preparation of PRP can subsequently be used for aggregation assays in either a 96-well plate or standard cuvette aggregometry.
For cuvette light transmittance aggregation assays, serial dilutions (1:3) of test compounds were prepared in 100% DMSO in a 96 well V-bottom plate (final DMSO concentration in the cuvette was 0.6%). The test compound (3 μl of serial dilutions in DMSO) was preincubated with PRP for 30-45 seconds prior to initiation of aggregation reactions, which were performed in a ChronoLog aggregometer by addition of agonist (5 or 10 μM ADP) to 490 μL of PRP at 37° C. In some cases, light transmittance aggregometry was performed using 490 μL of washed platelets (prepared as described above) at 37° C., and aggregation was initiated by addition of 5 μM ADP and 0.5 mg/ml human fibrinogen (American Diagnostics, Inc., Greenwich, Conn.). The aggregation reaction is recorded for ˜5 min, and maximum extent of aggregation is determined by the difference in extent of aggregation at baseline, compared to the maximum aggregation that occurs during the five minute period of the assay. Inhibition of aggregation was calculated as the maximum aggregation observed in the presence of inhibitor, compared to that in the absence of inhibitor. IC50s were derived by non-linear regression analysis using the Prism software (GraphPad, San Diego, Calif.).
Inhibition of ADP-dependent aggregation was also determined in 96-well flat-bottom microtiter plates using a microtiter plate shaker and plate reader similar to the procedure described by Frantantoni et al., Am. J. Clin. Pathol. 94, 613 (1990). All steps are performed at room temperature. For 96-well plate aggregation using platelet-rich plasma (PRP), the total reaction volume of 0.2 ml/well includes 180 μl of PRP (˜3×10^8 platelets/ml, see above), 6 μl of either serial dilution of test compounds in 20% DMSO or buffer (for control wells), and 10 μl of 20×ADP agonist solution (100 μM). The OD of the samples is then determined at 450 nm using a microtiter plate reader (Softmax, Molecular Devices, Menlo Park, Calif.) resulting in the 0 minute reading. The plates are then agitated for 5 min on a microtiter plate shaker and the 5 minute reading is obtained in the plate reader. Aggregation is calculated from the decrease of OD at 450 nm at t=5 minutes compared to t=0 minutes and is expressed as % of the decrease in the ADP control samples after correcting for changes in the unaggregated control samples. IC50s were derived by non-linear regression analysis.

T1 sequence (Q9H244 whole entry): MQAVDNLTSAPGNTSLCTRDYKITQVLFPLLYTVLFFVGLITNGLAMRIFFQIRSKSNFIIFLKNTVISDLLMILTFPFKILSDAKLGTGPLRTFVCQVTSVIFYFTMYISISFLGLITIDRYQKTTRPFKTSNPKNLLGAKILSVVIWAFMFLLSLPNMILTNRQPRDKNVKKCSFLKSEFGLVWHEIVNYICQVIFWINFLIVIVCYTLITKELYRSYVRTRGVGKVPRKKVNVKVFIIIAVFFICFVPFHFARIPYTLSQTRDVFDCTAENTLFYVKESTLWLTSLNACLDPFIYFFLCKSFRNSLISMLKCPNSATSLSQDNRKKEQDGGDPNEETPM

| SMILES | IC50 (P2Y12 receptor) [nM] | IC50 [1] [nM] |
| --- | --- | --- |
| CNc1cc2[nH]c(=O)n(-c3ccc(C(=O)N[C@@H](c4noc(=O)[nH]4)c4ccc(Cl)s4)cc3)c(=O)c2cc1F [Compound 45, (S)-N-((5-chlorothiophen-2-yl)(5-oxo-4,5-dihydro-1,2,4-oxadiazol-3-yl)methyl)-4-(6-fluoro-7-(methylamino)-2,4-dioxo-1,2-dihydroquinazolin-3(4H)-yl)benzamide] | < 50 | < 10000 |
| CNc1cc2ccn(-c3ccc(CNC(C(=O)O)c4ccc(Cl)s4)cc3)c(=O)c2cc1F (stereo not shown) [Compound 115, 2-(5-chlorothiophen-2-yl)-2-(4-(7-fluoro-6-(methylamino)-1-oxoisoquinolin-2(1H)-yl)benzylamino)acetic acid] | 50 to 500 | > 30000 |
